Source: US9226904B2, “Pharmacological treatment of Parkinson's disease” (The United States of America as Represented by the …, priority 2006, dated 2016)

Key:
[1] = test system: hemi-lesioned 6-OHDA-treated rat; test: Rotational activity (contralateral turns) in hemi-lesioned 6-OHDA-treated rat model of Parkinson's disease; assay type: in vivo; conditions: for contralateral turning after D1 agonist SKF 38393 (0.1 mg/kg) on test day: 14 days R(+)-8-OHDPAT 0.3 mg/kg or vehicle, then same plus SKF 38393 0.1 mg/kg on test day, observed 3 hr, FIG. 2, p<0.005
Procedure: Rats were rendered parkinsonian on one side of the brain by unilateral destruction of nigrostriatal dopamine neurons using the selective neurotoxin 6-OHDA and stereotaxic procedures. Animals were allowed to recover for at least 2 weeks following this procedure. Animals were then screened for efficacy of the lesion by subcutaneous injection of L-DOPA (25 mg/kg) plus the decarboxylase inhibitor benserazide (6.25 mg/kg) followed by assessment of motor activity.
Anti-parkinsonian action in the hemi-lesioned 6-OHDA-treated rat model was assessed by the elicitation of rotational activity to the side opposite the lesioned hemisphere (contralateral turns) following drug treatment. The number of contralateral turns was assessed by videotape recording of animals and counting the number of turns.
One group (controls) received a daily subcutaneous injection of vehicle (0.9% saline containing 0.1 mg/kg ascorbate; 1 ml/kg) for 14 days and the other group (8-OHDPAT) received a daily subcutaneous injection of R(+)-8-OHDPAT (0.3 mg/kg in 1 ml/kg volume) for 14 days. Beginning on day 15, both groups of rats were tested for motor activity and dyskinetic activity in response to the D1 receptor partial agonist SKF 38393 or the D2 receptor agonist quinpirole. Such testing was carried out in a randomized fashion with different doses of dopamine agonist being tested every 4th day (e.g. 3 days between dopamine agonist administration). Throughout this testing phase the control group continued to receive daily injection of vehicle and the 8-OHDPAT group continued to receive daily injection of 0.3 mg/kg R(+)-8-OHDPAT. On days when dopamine agonists were tested the vehicle or R(+)-8-OHDPAT was administered simultaneously with the dopamine agonist.

[2] = test system: hemi-lesioned 6-OHDA-treated rat; test: Observer assessment of motor dyskinesias (dyskinesia index) during rotational test; assay type: in vivo; conditions: repeated R(+)-8-OHDPAT administration, 3 hr rotational test
Procedure: Observer assessment of motor dyskinesias was carried out be viewing the videotaped recording of rats during testing for rotational activity. A dyskinesia score was generated at 10 minute intervals throughout the course of the rotational test (generally 3 hr). Dyskinesia scores were based on the following scale: 0-no evidence of abnormal activity; 1 mild, intermittent forelimb dyskinesia; 2-severe, more persistent forelimb dyskinesia associated with animal directing activity toward forelimb; 3-severe limb and axial dyskinesia associated with loss of balance and consistent “barrel-rolling” activity. The dyskinesia scores that were obtained were averaged to generate a dyskinesia index.
The experiments described in this example were conducted as described above. A dyskinesia index for each animal was determined during a 3 hr rotational test.

ΔFosB = test: Immunoblot of ΔFosB in denervated striatum of unilateral 6-OHDA-lesioned rats; assay type: in vivo, rat; conditions: once daily for 15 days; L-DOPA 25 mg/kg plus 6.25 mg/kg benserazide; SKF 38393 1 mg/kg; R(+)-8-OHDPAT 0.3 mg/kg concomitant with SKF 38393; FIG. 9; p<0.05
Procedure: To test whether a drug-related rise in ΔFosB contributes to dyskinesias elicited by repeated L-DOPA treatment, ΔFosB levels were assessed by immunoblotting. FIG. 8 provides an image of a typical blot. […] Thus a significant target of the treatments of the present invention is contemplated to be ΔFosB in the striatum. Even so, knowledge of the mechanism(s) is not necessary in order to make and use the present invention.

[3] = test system: hemi-lesioned 6-OHDA-treated rat; test: Rotational activity (contralateral turns) in hemi-lesioned 6-OHDA-treated rat model of Parkinson's disease; assay type: in vivo; conditions: for rotational response on day 15 of once daily administration: SKF 38393 0.1, 0.3 or 1.0 mg/kg with vehicle or with R(+)-8-OHDPAT 0.3 mg/kg, once daily 15 days, FIG. 10; for direction of turning elicited: daily s.c. dosing, R(+)-8-OHDPAT 0.3 mg/kg
[4] = coadministration with levodopa; Bibbiani et al., Neurology 2001; cited from earlier work
[5] = L-DOPA 10 mg/kg + 6.25 mg/kg benserazide, FIG. 1

Row | SMILES | contralateral turning after D1 agonist SKF 38393 (0.1 mg/kg) on test day [1] | ΔFosB in the denervated striatum (ΔFosB) | rotational response on day 15 of once daily administration [3] | direction of turning elicited [3, 5] | also measured
1 | CCCN(CCC)C1CCc2cccc(O)c2C1 (stereo not drawn) [R(+)-8-OHDPAT, 8-hydroxy-2-(di-n-propylamino)tetralin] | pronounced contralateral turning | prevents the D1 agonist-induced rise in ΔFosB | significantly greater contralateral turning response | ipsilateral turning could be elicited | anti-parkinsonian action (contralateral turning), chronic and concomitant versus acute administration ([1]; 14 day pretreatment with R(+)-8-OHDPAT 0.3 mg/kg plus concomitant R(+)-8-OHDPAT+SKF 38393 0.3 mg/kg on test day, FIG. 4, p<0.001): significant anti-parkinsonian action greater than all other treatment groups; contralateral turning after D2 agonist quinpirole (0.05 mg/kg) on test day ([1]; 14 days R(+)-8-OHDPAT 0.3 mg/kg, then R(+)-8-OHDPAT plus quinpirole 0.05 mg/kg on test day, vs vehicle plus quinpirole, 3 hr, FIG. 3, p<0.001): significantly greater contralateral turning; dyskinetic behavior (dyskinesia index) elicited by SKF 38393 (3.0 mg/kg) ([2]; FIG. 5): reduced dyskinetic behavior; dyskinetic behavior (dyskinesia index) elicited by quinpirole (0.05 mg/kg) ([2]; FIG. 6): reduced dyskinetic behavior; rotational response, pre-screened (primed) versus non-pre-screened (unprimed) rats ([3]; 15 days once daily R(+)-8-OHDPAT 0.3 mg/kg plus SKF 38393 0.3 mg/kg, FIG. 11): no significant difference
2 | N[C@@H](Cc1ccc(O)c(O)c1)C(=O)O [L-DOPA, levodopa] |  | significant increase |  | almost exclusively contralateral turning | contralateral turning on Day 15 relative to Day 1 ([3]; repeated daily s.c. dosing, L-DOPA 10 mg/kg + 6.25 mg/kg benserazide, R(+)-8-OHDPAT 0.3 mg/kg where given, FIG. 1): approximately 3 fold; coordination of the turning response (observed, not quantified) ([3]; upon repeated daily administration, L-DOPA 10 mg/kg + benserazide, R(+)-8-OHDPAT 0.3 mg/kg where given): progressively more uncoordinated
3 | Fc1ccc(-c2cncc(CNC[C@H]3CCc4ccccc4O3)c2)cc1 [sarizotan] |  |  |  |  | motor complications of levodopa treatment [4]: reduced motor complications
4 | Oc1cc2c(cc1O)C(c1ccccc1)CNCC2 (stereo not drawn) [SKF 38393] | no contralateral turning | significant increase | little net contralateral turning |  | 
5 | COc1ccccc1N1CCN(CCN(C(=O)C2CCCCC2)c2ccccn2)CC1 [WAY 100635] |  |  |  |  | effect of 5-HT1A antagonist pretreatment on R(+)-8-OHDPAT-facilitated anti-parkinsonian action of SKF 38393 ([1]; WAY 100635 0.1 mg/kg on test day prior to R(+)-8-OHDPAT 0.3 mg/kg plus SKF 38393 0.3 mg/kg, at least 14 days daily R(+)-8-OHDPAT, FIG. 7): blocked the facilitating effects
